From patent US10774051B2, “6-membered heterocyclic derivatives and pharmaceutical composition comprising the same” (Shionogi & Co., Ltd., priority 2015, dated 2020) come the findings set out here.

As usually defined, the pIC50 is −log10 of the IC50, conventionally taken in molar units.

In this experiment the target is human P2X7 receptor (Homo sapiens, UniProt Q99572, R270H/Y155H). Put plainly: Evaluation of human P2X7 receptor inhibitory activity (Yo-Pro uptake, BzATP stimulation, FLIPR TETRA). It is filed as cell-based. The method in brief: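 Yo-Pro dye uptake triggered by BzATP was monitored by FLIPR in human P2X7-transfected 1321N1 cells (SNP variant) in HEPES-buffered HBSS, pH 7.4-7.5. Compound was dispensed 8 min post-stimulation, then signal read for 20 min; IC50 derived logistically from inhibition of the fluorescence range.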

The mark [1] stands for this setting: antagonistic activity for the human P2X7 receptor, read-out: IC50.
Where [2] appears, read: 1321N1 cells stably expressing human P2X7 receptor, BzATP stimulation, Yo-Pro uptake, read-out: IC50 (antagonistic activity for the human P2X7 receptor), class symbol.
The mark [3] stands for this setting: 1321N1 cells stably expressing human P2X7 receptor, BzATP stimulation, Yo-Pro uptake, read-out: IC50 (antagonistic activity for the human P2X7 receptor).

pIC50: −log10 of the molar value. Read-outs that look alike come from different tables or passages of the source. Where only a bound is given, the exact number is not on record here.

In the case of `COc1cn(Cc2ccc(F)c(Cl)c2)c(Nc2cc3c(cc2C)COC3)nc1=O` [Compound I-0906], under setting [1], the pIC50 was 7.00 to 8.00. With `COc1cn(Cc2ccccc2)c(Nc2c(C)ccc(C)c2F)nc1=O` [Compound I-0926], the negative-log IC50 (pIC50) under setting [1] is 7.00 to 8.00.

For the compound `COc1cn(Cc2ccc(F)c(Cl)c2)c(Nc2cccc3c2ccc(=O)n3C)nc1=O` [Compound I-0881], under setting [1], the pIC50 was 6.30 to 7.00. On to `CCc1ccc(OC)cc1Nc1nc(=O)c(OC)cn1Cc1ccc(F)cc1` [Compound I-0253], for which, under setting [2], the pIC50 was 7.00 to 8.00. On to `Cc1cc(C(F)F)ccc1Nc1nc(=O)c(F)cn1Cc1cc(F)c(F)c(F)c1` [Compound I-1237], for which the negative logarithm of the IC50 (pIC50) under setting [1] is above 8.00.

Consider `COc1cn(Cc2ccc(F)c(Cl)c2)c(Nc2cc(C(F)(F)F)ccc2C)cc1=O` [Compound I-0956], for which, under setting [1], the pIC50 is 6.30 to 7.00. `COc1cc(C)c(Nc2nc(=O)c(OC)cn2Cc2ccc(F)c(F)c2)cc1OC` [Compound I-0276]: under setting [2], the pIC50 was 7.00 to 8.00. As for `COc1cn(Cc2ccccc2)c(Nc2cccc(OC(F)F)c2Cl)nc1=O` [Compound I-0133], under setting [2], the negative logarithm of the IC50 (pIC50) was 6.30 to 7.00. As for `COc1ccc(Cl)c(Nc2nc(=O)c(OC)cn2Cc2ccccc2)c1` [Compound I-0152], the pIC50 under setting [2] is 6.30 to 7.00.

On to `CCOc1cc(C)c(Nc2nc(=O)c(F)cn2Cc2ccc(F)c(Cl)c2)cc1F` [Compound I-1060], for which the negative logarithm of the IC50 (pIC50) under setting [1] was 7.00 to 8.00. As for `COc1cn(Cc2ccc(F)c(F)c2)c(Nc2cccc(SC)c2C)nc1=O` [Compound I-0606], the pIC50 under setting [1] is above 8.00.

Consider `COc1cn(Cc2ccccc2)c(Nc2ccc(N(C)C)cc2C)nc1=O` [Compound I-0622], for which the pIC50 under setting [1] is 7.00 to 8.00. As for `Cc1c(Cl)cccc1Nc1nc(=O)c(C(=O)NCCS(C)(=O)=O)cn1Cc1ccccc1` [Compound I-0077], the pIC50 under setting [2] is 7.00 to 8.00.

For the compound `Cc1nc2cc(C)c(Nc3nc(=O)cnn3Cc3cc(F)c(F)c(F)c3)cc2s1` [Compound I-1284], the negative-log IC50 (pIC50) under setting [1] was above 8.00. On the same count and under the same terms, under `Cc1cc(OC(F)F)ccc1Nc1nc(=O)c(F)cn1Cc1ccc(F)c(Cl)c1` [Compound I-1063] stands 7.00 to 8.00. For the compound `COc1cn(Cc2ccc(C(F)(F)F)cc2)c(Nc2cccc(Cl)c2C)nc1=O` [Compound I-0297], the negative logarithm of the IC50 (pIC50) under setting [3] was 6.60. Take `COc1cn(Cc2ccccc2)c(Nc2ccc3[nH]ccc3c2C)nc1=O` [Compound I-0583]: the pIC50 under setting [2] was above 8.00. Turning to `COc1nc(C)c(Nc2nc(=O)c(F)cn2Cc2ccc(F)c(Cl)c2)cc1C` [Compound I-1004], under setting [1], the pIC50 is above 8.00. As to `Cc1cc(F)c(-c2cccn(C)c2=O)cc1Nc1nc(=O)ccn1Cc1cc(F)c(F)c(F)c1` [Compound I-1137], under setting [1], the pIC50 was 7.00 to 8.00.

Turning to `CCc1cc(OC)c(OC)cc1Nc1nc(=O)c(OC)cn1Cc1cccc(Cl)c1` [Compound I-0271], under setting [2], the negative logarithm of the IC50 (pIC50) is above 8.00.

For `Cc1ccc(CO)cc1Nc1nc(=O)c(F)cn1Cc1cc(F)c(F)c(F)c1` [Compound I-1015], under setting [1], the pIC50 was above 8.00. `COc1cn(Cc2ccccc2)c(Nc2ccc(OC(C)C)cc2C)nc1=O` [Compound I-0191]: the negative logarithm of the IC50 (pIC50) under setting [2] was 6.30 to 7.00. As to `COc1cn(Cc2ccc(F)c(Cl)c2)c(Nc2cc(Cl)c(F)cc2C)nc1=O` [Compound I-0809], the pIC50 under setting [1] is 7.00 to 8.00.

`COc1cn(Cc2ccc(F)c(F)c2)c(Nc2cc(S(C)(=O)=O)c(C)cc2C)nc1=O` [Compound I-0605]: under setting [1], the pIC50 was 7.00 to 8.00. As for `COc1cn(Cc2ccccc2)c(NCc2cccc(Cl)c2C)nc1=O` [Compound I-0121], the pIC50 under setting [3] was 6.55. Regarding `O=c1nc(Nc2cccc3[nH]ccc23)n(Cc2ccc(F)c(Cl)c2)cc1F` [Compound I-1024], the pIC50 under setting [1] was above 8.00. Turning to `COc1ccc(C)c(Nc2nc(=O)c(F)cn2Cc2cc(F)cc(F)c2)c1` [Compound I-1069], under setting [1], the negative-log IC50 (pIC50) is 7.00 to 8.00. With `COc1cc(C)c(Nc2nc(=O)c(CO)nn2Cc2cc(F)c(F)c(F)c2)cc1OC` [Compound I-1256], the pIC50 under setting [1] was 7.00 to 8.00. Regarding `COc1cn(Cc2ccc(F)c(Cl)c2)c(Nc2ccc(N(C)C)cc2C)nc1=O` [Compound I-0248], the negative-log IC50 (pIC50) under setting [2] was 7.00 to 8.00.

As to `COc1cn(Cc2cc(F)cc(Cl)c2)c(Nc2cc(OC(F)(F)F)ccc2C)nc1=O` [Compound I-0694], the pIC50 under setting [1] is 6.30 to 7.00. As to `COc1cn(Cc2ccccc2)c(Nc2cc(Cl)c(Cl)cc2C)nc1=O` [Compound I-0464], the pIC50 under setting [2] was above 8.00.

Consider `COc1cn(Cc2ccccc2)c(Nc2cc(OC(F)F)c(C)cc2C)nc1=O` [Compound I-0875], for which the pIC50 under setting [1] is 7.00 to 8.00.

Take `Cc1ccc(CO)cc1Nc1nc(=O)cnn1Cc1cc(F)c(F)c(F)c1` [Compound I-1255]: the pIC50 under setting [1] is above 8.00. On to `COc1cn(Cc2cc(F)c(F)cc2F)c(Nc2cccc(Cl)c2C)nc1=O` [Compound I-0347], for which the pIC50 under setting [3] was 7.70.

With `COc1cn(Cc2cc(C)cc(F)c2)c(Nc2cccc(Cl)c2C)nc1=O` [Compound I-0450], the pIC50 under setting [2] is 7.00 to 8.00. In the case of `CN=c1nc(Nc2cc(C)ccc2C)n(Cc2cc(F)c(F)c(F)c2)cc1F` [Compound I-1289], the pIC50 under setting [1] is 6.30 to 7.00.

For `Cc1cn(Cc2cc(F)c(F)c(F)c2)c(Nc2ccc3[nH]ccc3c2C)nc1=O` [Compound I-1165], under setting [1], the pIC50 is above 8.00. Turning to `Cc1cc2[nH]ncc2cc1Nc1nc(=O)c(F)cn1Cc1ccc(F)c(Cl)c1` [Compound I-1093], under setting [1], the negative logarithm of the IC50 (pIC50) is 7.00 to 8.00. For `COc1cn(Cc2ccc(F)cc2)c(Nc2cccc(OC(F)F)c2C)nc1=O` [Compound I-0660], the pIC50 under setting [1] was 7.00 to 8.00. In the case of `COc1cn(Cc2ccccc2Cl)c(Nc2cccc(Cl)c2C)nc1=O` [Compound I-0125], the pIC50 under setting [2] was 7.00 to 8.00. As for `CCc1ccccc1CNc1nc(=O)c(OC)cn1Cc1ccccc1` [Compound I-0114], under setting [2], the negative logarithm of the IC50 (pIC50) is 6.30 to 7.00.

`Cc1nc2cc(Cl)c(Nc3nc(=O)c(F)cn3Cc3ccc(F)c(Cl)c3)cc2o1` [Compound I-1077]: the pIC50 under setting [1] is above 8.00. With `CCc1cc2c(cc1Nc1nc(=O)c(F)cn1Cc1ccc(F)cc1)CCC2` [Compound I-0186], under setting [3], the pIC50 was 8.70.

Consider `COc1cn(Cc2ccccc2)c(Nc2ccc(Cl)cc2C)nc1=O` [Compound I-0072], for which the pIC50 under setting [2] was 7.00 to 8.00. Consider `CCc1cc(OC)ccc1Nc1nc(=O)c(OC)cn1Cc1cc(F)c(F)c(F)c1` [Compound I-0573], for which the negative logarithm of the IC50 (pIC50) under setting [2] is above 8.00. The same measure, in the same setting: under `COc1cn(Cc2ccccc2OC(F)(F)F)c(Nc2cccc(Cl)c2C)nc1=O` [Compound I-0303] stands 6.30 to 7.00.

As for `COc1cn(Cc2cc(F)cc(F)c2)c(Nc2cc(Cl)ccc2C)nc1=O` [Compound I-0593], under setting [1], the negative-log IC50 (pIC50) was 7.00 to 8.00. Take `CCc1cc(OC)c(OC)cc1Nc1nc(=O)c(OC)cn1Cc1cc(F)c(F)c(F)c1` [Compound I-0908]: the pIC50 under setting [1] is above 8.00.

Regarding `Cc1c(Nc2nc(=O)c(F)cn2Cc2cc(F)cc(F)c2)ccc2scnc12` [Compound I-1202], the pIC50 under setting [1] was above 8.00. Still for that read-out and setting: the same measure for `COc1ccc(Nc2nc(=O)c(F)cn2Cc2cc(F)c(F)c(F)c2)c(Cl)c1` [Compound I-1186]: above 8.00; for `COc1cc(C)c(Nc2nc(=O)c(OC)cn2Cc2cc(F)cc(F)c2)cc1F` [Compound I-0721]: above 8.00; for `COc1ccc(Nc2nc(=O)c(OC)cn2Cc2cc(F)c(F)c(F)c2)c(Cl)c1` [Compound I-0847]: above 8.00. On to `COc1cc(C)cc(Nc2nc(=O)c(OC)cn2Cc2cc(F)cc(F)c2)c1C` [Compound I-0371], for which the pIC50 under setting [2] was above 8.00. On the same count and under the same terms, the same measure for `Cc1c(Cl)cccc1Nc1nc(=O)c(CC(=O)NC2CCOCC2)cn1Cc1ccccc1` [Compound I-0338]: 6.30 to 7.00. For `Cc1ccc(N2CCCC2=O)cc1Nc1nc(=O)c(Cl)cn1Cc1cc(F)cc(F)c1` [Compound I-0701], the negative logarithm of the IC50 (pIC50) under setting [1] is above 8.00. Turning to `COc1cc(C)c(Nc2nc(=O)c(F)cn2Cc2cccc(Cl)c2)cc1C` [Compound I-0348], under setting [2], the pIC50 is above 8.00. For the compound `COc1cn(Cc2ccccc2)c(Nc2cccc(N(C)C)c2C)nc1=O` [Compound I-0217], the pIC50 under setting [2] was 7.00 to 8.00. Take `CCOC(=O)Cc1cn(Cc2ccccc2)c(Nc2cccc(Cl)c2C)nc1=O` [Compound I-0023]: under setting [2], the negative logarithm of the IC50 (pIC50) was 6.30 to 7.00. With `COc1cn(Cc2ccc(F)c(F)c2)c(Nc2cccc3c(=O)n(C)ccc23)nc1=O` [Compound I-0903], the negative-log IC50 (pIC50) under setting [1] was 7.00 to 8.00. For the compound `COc1ccc(Nc2nc(=O)c(OC)cn2Cc2ccc(F)cc2)c(C)c1` [Compound I-0739], under setting [1], the negative-log IC50 (pIC50) is 7.00 to 8.00. In the case of `COc1cn(Cc2cc(F)c(F)c(F)c2)c(Oc2cc(-c3ncco3)ccc2C)nc1=O` [Compound I-0942], the pIC50 under setting [3] is 6.64. As to `COc1cn(Cc2cc(F)cc(Cl)c2)c(Nc2cccc(OC(F)F)c2C)nc1=O` [Compound I-0576], the negative-log IC50 (pIC50) under setting [2] was 7.00 to 8.00. Turning to `COc1cc(C)c(Nc2nc(=O)c(OC)cn2Cc2ccc(F)c(Cl)c2)cc1F` [Compound I-0719], the pIC50 under setting [1] was above 8.00.

As to `COc1cc(C)cc(Nc2nc(=O)c(OC)cn2Cc2ccccc2)c1C` [Compound I-0281], under setting [2], the pIC50 is above 8.00. Turning to `Cc1ccc(-c2cccn(C)c2=O)cc1Nc1nc(=O)c(F)cn1Cc1cc(F)c(F)c(F)c1` [Compound I-1221], the negative-log IC50 (pIC50) under setting [1] is above 8.00. As to `COc1cc(C)cc(Nc2nc(=O)c(OC)cn2Cc2cc(F)c(F)c(F)c2)c1C` [Compound I-0601], the pIC50 under setting [1] is above 8.00. For the compound `COc1cc(C)c(Nc2nc(=O)c(CF)nn2Cc2cc(F)c(F)c(F)c2)cc1OC` [Compound I-1248], the negative-log IC50 (pIC50) under setting [1] was 7.00 to 8.00. Regarding `COc1ccc(Cl)c(Nc2nc(=O)c(F)cn2Cc2cc(F)c(F)c(F)c2)c1` [Compound I-1196], under setting [1], the pIC50 is above 8.00. As for `COc1cn(Cc2cc(F)c(F)c(F)c2)c(Nc2cc(N3CCCC3=O)ccc2C)nc1=O` [Compound I-0803], the negative-log IC50 (pIC50) under setting [1] is 7.00 to 8.00. On the same count and under the same terms, the same measure for `COc1nc(C)c(Nc2nc(=O)c(F)cn2Cc2cc(F)cc(F)c2)cc1C` [Compound I-1003]: above 8.00; for `Cc1c(Nc2nc(=O)c(F)cn2Cc2cc(F)c(F)c(F)c2)ccc2scnc12` [Compound I-1203]: above 8.00.
